Patent publication US8946431B2, “2-(substituted ethynyl)quinoline derivatives as mGLUr5 antagonists” (Korea Institute of Science and Technology, priority 2013, dated 2015)
Where two headings read alike, the source gives them in different places. Marks after values point to notes of the source that are not given here.

Legend:
[1] = tested on: SNL (spinal nerve ligation) neuropathic pain models; experiment: In vivo test in SNL (spinal nerve ligation) neuropathic pain models; conditions: orally administered, SNL model, compared with gabapentin as control (FIG. 1 C, D)
Excerpt: The compound prepared in Example 26 was subjected to an in vivo test as follows. […] Here, gabapentin was used as a control.

[2] = rat
[3] = HLM (human liver microsomal) stability; format: in vitro ADME; conditions: human liver microsomes
[4] = target: T1, mGluR5 (Homo sapiens, UniProt P41594); experiment: Assay for m-GluR5 activity using FDSS6000 (calcium mobilization by L-glutamate in mGluR5/HEK293 cells); format: cell-based; conditions: HEK293, L-glutamate 10 uM, HEK cells expressing m-GluR5, read-out: % Inhibition rate (mGluR5)
T1 construct: host or cells: HEK293 (human embryonic kidney) cells stably expressing m-GluR5
T1 sequence (P41594 21-1212): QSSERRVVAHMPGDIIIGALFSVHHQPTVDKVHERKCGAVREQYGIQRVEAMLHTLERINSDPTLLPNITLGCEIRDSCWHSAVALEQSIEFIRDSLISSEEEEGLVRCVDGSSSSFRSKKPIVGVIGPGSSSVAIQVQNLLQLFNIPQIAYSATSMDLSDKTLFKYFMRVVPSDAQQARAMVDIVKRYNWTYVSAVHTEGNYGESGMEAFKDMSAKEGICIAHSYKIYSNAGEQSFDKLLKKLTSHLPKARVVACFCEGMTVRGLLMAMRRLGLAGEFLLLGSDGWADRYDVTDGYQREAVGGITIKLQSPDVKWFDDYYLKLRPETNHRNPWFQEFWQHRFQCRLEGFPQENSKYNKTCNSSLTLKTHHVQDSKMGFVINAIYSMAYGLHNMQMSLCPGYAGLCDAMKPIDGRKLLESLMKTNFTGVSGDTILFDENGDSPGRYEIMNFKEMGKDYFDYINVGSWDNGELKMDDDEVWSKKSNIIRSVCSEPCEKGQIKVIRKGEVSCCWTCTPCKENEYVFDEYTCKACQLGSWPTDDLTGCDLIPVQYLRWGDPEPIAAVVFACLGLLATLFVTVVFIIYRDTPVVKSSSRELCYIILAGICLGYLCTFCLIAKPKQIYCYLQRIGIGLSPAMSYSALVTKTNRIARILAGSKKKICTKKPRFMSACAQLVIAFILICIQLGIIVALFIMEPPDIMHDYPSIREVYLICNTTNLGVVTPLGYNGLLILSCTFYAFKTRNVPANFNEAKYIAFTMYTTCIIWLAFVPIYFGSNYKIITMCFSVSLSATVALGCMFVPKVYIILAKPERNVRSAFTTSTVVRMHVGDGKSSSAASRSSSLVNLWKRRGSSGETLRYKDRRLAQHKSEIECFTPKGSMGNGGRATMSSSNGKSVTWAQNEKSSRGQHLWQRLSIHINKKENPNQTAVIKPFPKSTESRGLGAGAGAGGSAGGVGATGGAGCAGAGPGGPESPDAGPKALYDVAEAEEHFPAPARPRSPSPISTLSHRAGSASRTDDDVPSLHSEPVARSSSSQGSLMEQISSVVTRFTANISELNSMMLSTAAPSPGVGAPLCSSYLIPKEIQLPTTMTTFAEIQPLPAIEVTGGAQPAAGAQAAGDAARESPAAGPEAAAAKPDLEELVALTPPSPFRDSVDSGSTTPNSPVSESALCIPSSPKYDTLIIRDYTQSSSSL
Experimental: Inhibitory activity (%) of the compound represented by Formula 1 on calcium mobilization developed at a high concentration of glutamate in mGluR5/HEK293 cells was measured by using a high throughput FDSS6000.
After HEK cells stably expressing m-GluR5 (Human embryonic kidney cell line; m-GluR5: Yonsei University) were prepared at a density of 4×10^4/Ml per well, aliquots of 100 μl from the cell suspension were distributed evenly into a 96-well plate and incubated for 18 hr at 37° C., 5% CO2. The well plate was washed with a HBSS buffer to remove the culture medium, and reacted with a HBSS buffer containing a Ca^2+ fluorescent dye (FLIPR Calcium 5 assay kit: Molecular Devices) for 30 min at 37° C., 5% CO2, thereby labeling with the fluorescent dye. Separately from the 96-well plate including the cells, another 96-well plate including L-glutamate (final concentration: 10 uM) capable of activating m-GluR5 and a blacking agent was prepared. Since most of cell-based HTS devices are equipped with a liquid application system for injection of a drug, but have no liquid sucking system, the blocking agent to be tested and L-glutamate were respectively provided at a 6-fold higher concentration in a HBSS buffer at the amount of 25 μl, diluted by six-times at the final cell plate volume of 150 μl, and then used in this assay. Briefly, the FDSS6000 assay was carried out by recording a reference level of 20 sec, pre-treating with a blocking agent for 75 sec, and then measuring the change in intracellular calcium level depending on the administration of L-glutamate. After the area of a 480/520 ratio value in a control without treatment of a test drug was set to 100%, an inhibitory effect of the test drug was calculated as a percentage (%) thereon.
For accurate calcium imaging, the light source of 4 xenon lamps in FDSS6000 were radiated to selectively expose the cells to the excitation wavelength (480 nm) by a computer-controlled filter wheel. Data were obtained at intervals of 1.23 sec. The emitter fluorescence light inflowed through a 520 nm long-pass filter was obtained as an average 480/520 ratio value for each well in the 96-wells by using a CCD camera and a digital fluorescence analyzer in FDSS6000. All image data and analyses were obtained by using a FDSS6000-exclusive program from Hamamatsu Photonics.

[5] = target: CYP2C9 (Homo sapiens, UniProt P11712); experiment: CYP inhibitory rate, CYP2C9; format: in vitro ADME
Sequence of CYP2C9 (P11712 whole entry): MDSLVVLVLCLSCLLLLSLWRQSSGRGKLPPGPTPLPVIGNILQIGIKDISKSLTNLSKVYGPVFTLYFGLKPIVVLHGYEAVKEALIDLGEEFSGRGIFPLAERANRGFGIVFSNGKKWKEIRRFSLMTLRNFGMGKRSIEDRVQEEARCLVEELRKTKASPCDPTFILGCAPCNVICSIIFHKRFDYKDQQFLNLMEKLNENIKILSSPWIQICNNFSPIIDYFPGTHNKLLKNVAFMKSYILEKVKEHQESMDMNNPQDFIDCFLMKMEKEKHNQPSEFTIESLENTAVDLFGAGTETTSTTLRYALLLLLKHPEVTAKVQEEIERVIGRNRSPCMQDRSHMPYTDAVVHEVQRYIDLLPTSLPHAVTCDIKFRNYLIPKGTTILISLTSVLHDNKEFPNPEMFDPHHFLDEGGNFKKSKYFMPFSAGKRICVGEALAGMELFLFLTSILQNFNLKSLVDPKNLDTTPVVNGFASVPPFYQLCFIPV

[6] = target: CYP2D6 (Homo sapiens, UniProt P10635); experiment: CYP inhibitory rate, CYP2D6; format: in vitro ADME
Sequence of CYP2D6 (P10635 whole entry): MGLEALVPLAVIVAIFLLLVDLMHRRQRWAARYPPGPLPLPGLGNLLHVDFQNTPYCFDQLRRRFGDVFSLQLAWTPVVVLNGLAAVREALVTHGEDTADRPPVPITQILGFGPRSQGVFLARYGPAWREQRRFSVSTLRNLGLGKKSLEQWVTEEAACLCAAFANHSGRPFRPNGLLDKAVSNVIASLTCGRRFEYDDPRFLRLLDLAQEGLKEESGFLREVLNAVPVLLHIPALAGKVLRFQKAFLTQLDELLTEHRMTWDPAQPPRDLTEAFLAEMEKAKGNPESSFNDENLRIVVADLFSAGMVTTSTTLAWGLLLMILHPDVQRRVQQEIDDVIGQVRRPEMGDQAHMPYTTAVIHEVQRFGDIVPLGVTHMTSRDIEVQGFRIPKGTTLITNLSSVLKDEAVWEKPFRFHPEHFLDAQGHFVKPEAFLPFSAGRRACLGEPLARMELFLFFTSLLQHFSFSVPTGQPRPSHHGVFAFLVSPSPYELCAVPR

[7] = target: T1, mGluR5; experiment: Inhibitory concentration (IC50) on mGluR5; format: cell-based
[8] = target: hERG (Homo sapiens, UniProt Q12809); experiment: Inhibitory concentration (IC50) on hERG
Sequence of hERG (Q12809 whole entry): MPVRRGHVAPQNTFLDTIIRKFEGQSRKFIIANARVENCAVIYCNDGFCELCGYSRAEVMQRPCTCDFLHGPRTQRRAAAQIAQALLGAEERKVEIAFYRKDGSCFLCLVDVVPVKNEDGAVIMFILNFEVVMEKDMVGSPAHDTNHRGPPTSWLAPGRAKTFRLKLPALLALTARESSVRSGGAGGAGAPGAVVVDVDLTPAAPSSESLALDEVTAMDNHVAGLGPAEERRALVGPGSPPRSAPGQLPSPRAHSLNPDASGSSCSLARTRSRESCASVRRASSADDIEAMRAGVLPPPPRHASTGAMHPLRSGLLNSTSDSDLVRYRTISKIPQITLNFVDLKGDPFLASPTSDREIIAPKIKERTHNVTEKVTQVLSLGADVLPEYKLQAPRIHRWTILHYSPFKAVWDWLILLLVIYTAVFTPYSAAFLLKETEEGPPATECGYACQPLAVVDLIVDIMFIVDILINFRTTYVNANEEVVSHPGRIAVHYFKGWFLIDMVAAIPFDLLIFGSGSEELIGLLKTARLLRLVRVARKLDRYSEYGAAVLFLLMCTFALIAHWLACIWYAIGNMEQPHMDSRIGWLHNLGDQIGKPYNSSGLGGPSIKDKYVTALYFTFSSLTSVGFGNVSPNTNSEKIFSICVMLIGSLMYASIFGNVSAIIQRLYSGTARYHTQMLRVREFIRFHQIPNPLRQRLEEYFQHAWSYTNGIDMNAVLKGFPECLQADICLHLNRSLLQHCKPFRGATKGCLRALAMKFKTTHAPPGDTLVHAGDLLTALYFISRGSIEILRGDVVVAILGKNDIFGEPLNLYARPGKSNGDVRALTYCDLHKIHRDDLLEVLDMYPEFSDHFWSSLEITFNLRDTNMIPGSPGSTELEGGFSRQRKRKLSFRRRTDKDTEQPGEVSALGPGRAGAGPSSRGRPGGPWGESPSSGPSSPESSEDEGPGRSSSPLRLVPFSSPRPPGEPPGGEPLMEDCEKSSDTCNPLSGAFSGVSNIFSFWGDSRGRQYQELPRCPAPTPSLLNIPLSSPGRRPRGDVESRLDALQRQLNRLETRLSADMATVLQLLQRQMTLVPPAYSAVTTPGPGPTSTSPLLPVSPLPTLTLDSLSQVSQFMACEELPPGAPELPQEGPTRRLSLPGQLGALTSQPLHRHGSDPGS

[9] = target: CYP3A4 (Homo sapiens, UniProt P08684); experiment: CYP inhibitory rate, CYP3A4; format: in vitro ADME
Sequence of CYP3A4 (P08684 whole entry): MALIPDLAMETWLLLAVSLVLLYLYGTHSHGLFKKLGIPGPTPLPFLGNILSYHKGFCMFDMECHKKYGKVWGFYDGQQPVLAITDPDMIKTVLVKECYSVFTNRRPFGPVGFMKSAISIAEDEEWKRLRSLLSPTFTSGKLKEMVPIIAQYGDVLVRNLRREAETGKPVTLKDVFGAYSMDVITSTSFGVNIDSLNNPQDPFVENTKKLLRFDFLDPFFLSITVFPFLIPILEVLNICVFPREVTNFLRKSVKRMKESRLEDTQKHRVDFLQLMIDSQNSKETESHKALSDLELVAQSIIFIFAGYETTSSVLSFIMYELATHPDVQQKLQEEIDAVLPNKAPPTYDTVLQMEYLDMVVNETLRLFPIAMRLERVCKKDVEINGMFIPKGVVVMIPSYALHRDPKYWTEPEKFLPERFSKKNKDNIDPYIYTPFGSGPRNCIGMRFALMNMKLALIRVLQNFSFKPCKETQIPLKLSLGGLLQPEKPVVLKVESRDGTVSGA

## C(#Cc1ccc2ccccc2n1)c1ccccn1 [Example 26, 2-(Pyridine-2-ylethynyl)quinoline]
[1]
  inhibitory effect on cold allodynia: higher inhibitory effect
[2]; intravenous injection (n=4)
  CL: 84.93 (±8.98) mL/min/kg
  T1/2: 58.24 (±62.41) min
  Vdss: 1269.02 (±158.55) mL/kg
[2]; oral administration
  F: 15.9%
[2]; oral administration (n=3)
  Cmax: 0.43 (±0.18) μg/mL
  T1/2: 48.53 (±8.06) min
[2]; oral administration (n=3), median value (range)
  Tmax: 10 (5-30)^a min
[3]
  HLM % remaining after 30 min: 88%
[4]; 1 μM compound
  inhibition at 1 µM: 58.8%
[4]; 10 μM compound
  inhibition at 10 µM: 76.7%
[5]
  CYP (% remaining @ 10 μM) CYP2C9: >99%
[6]
  CYP (% remaining @ 10 μM) CYP2D6: 98%
[7]
  IC50: 0.94 ± 0.25 µM
[8]
  IC50: 20.3 ± 6.11 µM
[9]
  CYP (% remaining @ 10 μM) CYP3A4: 77%
